The source of these data is patent US8771953B2, “Evaluation of the potential risk of drug induced mood disturbance and suicide: use of a dedicated platform” (Biocortech, priority 2008, dated 2014).

Each structure is given as a SMILES string. Read-outs that look alike come from different tables or passages of the source.

Experiment [1] deals with ADAR2 mRNA. Put plainly: Q-PCR of ADAR2 mRNA expression in SH-SY5Y cells. Particulars: Homo sapiens, 10 micromolar, 24 hours, read-out: QPCR: RNA expresion (% of variation) ADAR2. The class given is cell-based. The method, then:
(§1) The SH-SY5Y Human neuroblastoma cell line was purchased from ECACC (EC94030304 from the European Collection of Cell Cultures (ECACC)). The cell line SH-SY5Y is a thrice-cloned neuroblastoma, originally from SK-N-SH and first reported in 1978. A neuroblast-like subclone of SK-N-SH, named SH-SY, was subcloned as SH-SY5, which was subcloned again as SH-SY5Y (Biedler J L et al. Cancer Res. 1978; 38:3751-7). Cells were cultured in high glucose D-MEM medium (Sigma, ref D6546) supplemented with 10% dialysed FCS (PAA, ref. A15-507, lot A50708-0050), 2 mM Glutamine (Sigma, G7513) and a 1× mix of Antibiotic-Antimycotic Stabilized (Sigma, ref. A5955) at 37° C. under a humidified atmosphere of 5% CO2. The day preceeding drug or hIFNα treatment, SH-SY5Y cells were plated in 6-well plates at a density of 10^6 cells/well. One 6-well plate was used per experimental condition (concentration or treatment duration). The day after plating, culture medium was removed and cells were incubated for 24 hours with a 10 μM solution of the compound to be tested molecules or a 1000 IU/ml solution of hIFNα (PBL biomedical laboratories). For hIFNα dose-response experiment cells were incubated with 1, 10, 100, and 1000 IU/ml of hIFNα solutions. For hIFNα time-course experiment cells were treated for 24, 48, or 72 hours with a 1000 IU/ml solution of hIFNα. After the different treatments, cells were directly lysed in RLT lysis buffer and total RNA purified according to manufacturer's protocol (Qiagen, RNeasy Plus mini kit, ref. 74134). Total RNA was then reverse transcribed with Thermoscript RT-PCR system Plus Taq (Invitrogen, 11146-032) and the resulting cDNA used for CE-SSCP and quantitative real-time PCR.
(§2) In order to quantify levels of 5-HT2CR, ADAR1 and ADAR2 mRNA expression in SH-SY5Y cells or in prefrontal cortex, total blood and skin of Balb/cJ mice, first-strand cDNA was synthesized by reverse transcription and subjected to TaqMan quantitative real-time PCR analysis (Applied Biosystems). All probes and primers used for the quantitative PCRs were from Applied Bio systems (Gene Expression Assays, Assay-On-Demand) (see Table 1, Applied Biosystems primers and probes references): […]
(§3) Human GAPDH (product no. 4326317E; Applied Biosystems) or mouse GAPDH (product no. 4352339E; Applied Biosystems) were included in each multiplex PCR as an internal control. Real-time PCR and subsequent analysis were performed with a 48-well block StepOne RT PCR system (Applied Biosystems). Quantification of target gene expression in all samples was normalized to GAPDH expression by the equation Ct (target)−Ct (GAPDH)=ΔCt, where Ct is the threshold cycle number. The mean ΔCt value of samples from untreated mice or cells was determined and used as a reference point for the samples corresponding to treated animals or cells. Differences between untreated and treated animals or cells, including individual variation were calculated by the equation (ΔCt (individual treated samples)−ΔCt (mean of untreated samples)=ΔΔCt). Changes in target gene expression (n-fold) in each sample were calculated by 2^−ΔΔCt, from which the means and standard deviations (SD) were derived.
(§4) The SH-SY5Y Human neuroblastoma cell line was purchased from ECACC. Cells were cultured in high glucose D-MEM medium (Sigma, ref. D6546) supplemented with 10% dialysed FCS (PAA, ref. A15-507, lot A50708-0050), 2 mM Glutamine (Sigma, ref. G7513) and a 1× mix of Antibiotic-Antimycotic Stabilized (Sigma, ref. A5955) at 37° C. under a humidified atmosphere of 5% CO2. The day preceeding hIFNα or drug treatment, SH-SY5Y cells were plated in 6-well plates (Corning, Multiwell Plate, 6 well, Corning CellBIND Surface, ref 3335) at a density of 5; 7 or 9·10^6 cells/well for a 72-, 48- or 24-hour treatment respectively. Six or eight wells of 6-well plates were used per experimental condition (control, concentration or treatment duration).

Experiment [2] relates to 5-HT2cR mRNA. In words: Editing profile of 5-HT2cR mRNA isoforms by CE-SSCP (nested PCR) in SH-SY5Y cells; enzyme activity indexes worked out from the profile. The class given is cell-based, human. Particulars: for activation at 10 µM: Homo sapiens, SH-SY5Y.
Experiment [3] has as its system ADAR1a mRNA. In words: Q-PCR of ADAR1a mRNA expression in SH-SY5Y cells. The format is cell-based. Particulars: Homo sapiens, 10 micromolar, 24 hours, read-out: QPCR: RNA expresion (% of variation) ADAR1a.
Excerpt: ADAR1a RNA Expression in SH-SY5Y cells (Q-PCR, Applied TaqMan probes ref: Hs 01020780_m1).
as §1, §2, §3, §4

Experiment [4] has as its system ADAR1b mRNA. Put plainly: Q-PCR of ADAR1b mRNA expression in SH-SY5Y cells. The format is cell-based. To be noted: Homo sapiens, 10 micromolar, 24 hours, read-out: QPCR: RNA expresion (% of variation) ADAR1b. The method, then:
as §1, §2, §3, §4

[5] abbreviates: 10 micromolar, 24 hours, read-out: ENZYME ACTIVIY INDEX (% of variation) ADAR1.
[6] abbreviates: 10 micromolar, 24 hours, read-out: ENZYME ACTIVIY INDEX (% of variation) ADAR1 + 2.
[7] abbreviates: 10 micromolar, 24 hours, read-out: ENZYME ACTIVIY INDEX (% of variation) ADAR2.
[8] abbreviates: 10 micromolar, 24 hours, read-out: ENZYME ACTIVIY INDEX (% of variation) ADARI.
Where [9] appears, read: 10 micromolar, 24 hours, read-out: ENZYME ACTIVIY INDEX (% of variation) ADARII.
[10] abbreviates: 10 micromolar, 24 hours, read-out: ENZYME ACTIVIY INDEX (% of variation) NE.
Where [11] appears, read: 24 h, read-out: ENZYME ACTIVIY INDEX (% of variation) ADAR1.
The mark [12] stands for this setting: 24 h, read-out: ENZYME ACTIVIY INDEX (% of variation) ADAR1 + 2.
The mark [13] stands for this setting: 24 h, read-out: ENZYME ACTIVIY INDEX (% of variation) ADAR2.
Setting [14] is: 24 h, read-out: ENZYME ACTIVIY INDEX (% of variation) ADARI.
Setting [15] is: 24 h, read-out: ENZYME ACTIVIY INDEX (% of variation) ADARII.
Where [16] appears, read: 24 h, read-out: ENZYME ACTIVIY INDEX (% of variation) NE.

For the compound `NS(=O)(=O)Cc1noc2ccccc12` [Zonisamide], the percent change in ADAR2 mRNA expression at 10 µM in experiment [1] was -23%. Further, the activation at 10 µM in experiment [2] (setting [5]) is 11.9%; in experiment [2] (setting [6]) it was 9.7%; in experiment [2] (setting [7]), -7.8%; in experiment [2] (setting [8]), 11.5%; in experiment [2] (setting [9]), 6.3%; in experiment [2] (setting [10]), -10.5%. Moreover, the % change in ADAR1a mRNA expression at 10 µM in experiment [3] was -24%. Further, the percent change in mRNA expression at 10 µM in experiment [4] was -19%.

On to `Cc1c(C(=O)NN2CCCCC2)nn(-c2ccc(Cl)cc2Cl)c1-c1ccc(Cl)cc1` [Rimonabant], for which, in experiment [1], the percent change in ADAR2 mRNA expression at 10 µM is -7%. Further, the activation at 10 µM is 13.3% in experiment [2] (setting [5]); 2.4% in experiment [2] (setting [6]); -3.7% in experiment [2] (setting [7]); 11.3% in experiment [2] (setting [8]); 1.2% in experiment [2] (setting [9]); -10.4% in experiment [2] (setting [10]). For the same compound, in experiment [2] (SH-SY5Y cells, 48 hours, 10 μM), the “alteration of 5-HT2cR mRNA editing compared with that observed after INFα treatment (component analysis, FIG. 4)” value is on record as “similarly altered”. For the same compound, in experiment [3], the % change in ADAR1a mRNA expression at 10 µM is -43%. The percent change in mRNA expression at 10 µM in experiment [4] is -32%.

Regarding `CNCCCN1c2ccccc2CCc2ccccc21` [Desipramine], the percent change in ADAR2 mRNA expression at 10 µM in experiment [1] is -12%. The activation at 10 µM is -8.6% in experiment [2] (setting [11]); 5.7% in experiment [2] (setting [12]); 15.5% in experiment [2] (setting [13]); -6.6% in experiment [2] (setting [14]); 7.5% in experiment [2] (setting [15]); 5.9% in experiment [2] (setting [16]). The % change in ADAR1a mRNA expression at 10 µM in experiment [3] was 29%. Further, the percent change in mRNA expression at 10 µM in experiment [4] is -38%.

In the case of `CN(C)CCCC1(c2ccc(F)cc2)OCc2cc(C#N)ccc21` (stereo not shown) [Citalopram], in experiment [1], the percent change in ADAR2 mRNA expression at 10 µM worked out at 64%. The activation at 10 µM in experiment [2] (setting [5]) was -5.7%; in experiment [2] (setting [6]), 70.2%; in experiment [2] (setting [7]), 70.1%; in experiment [2] (setting [8]), 5.3%; in experiment [2] (setting [9]) it was 70.2%; in experiment [2] (setting [10]), -7.4%. In experiment [3], the % change in ADAR1a mRNA expression at 10 µM is -18%. Besides, the percent change in mRNA expression at 10 µM in experiment [4] was -2%.

In the case of `NCC1(CC(=O)O)CCCCC1` [Gabapentin], the percent change in ADAR2 mRNA expression at 10 µM in experiment [1] was -21%. In addition, the activation at 10 µM in experiment [2] (setting [11]) is 19.2%; in experiment [2] (setting [12]), -28.5%; in experiment [2] (setting [13]), -26.7%; in experiment [2] (setting [14]) it was 10.1%; in experiment [2] (setting [15]), -28.1%; in experiment [2] (setting [16]), -8.3%. In addition, the % change in ADAR1a mRNA expression at 10 µM in experiment [3] was -42%. The percent change in mRNA expression at 10 µM in experiment [4] is -34%.

With `Cc1cc2c(s1)Nc1ccccc1N=C2N1CCN(C)CC1` [Olanzapine], the percent change in ADAR2 mRNA expression at 10 µM in experiment [1] was determined as 92%. Moreover, the activation at 10 µM in experiment [2] (setting [11]) was -23.2%; in experiment [2] (setting [12]), 84.9%; in experiment [2] (setting [13]), 9.2%; in experiment [2] (setting [14]) it was -7.6%; in experiment [2] (setting [15]), 70.5%; in experiment [2] (setting [16]), 7%. Besides, the % change in ADAR1a mRNA expression at 10 µM in experiment [3] is -54%. Besides, the percent change in mRNA expression at 10 µM in experiment [4] was 20%.
